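Cultured in 96-well plates, cells were exposed to test compound for 48 hours across five concentrations. At the GI50, growth is halved.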 The source made the active and inactive calls. Rule as the data show it: active = GI50 up to about 1.1 µM and inactive = higher.
Columns and labels:
Experiment in all cases: DTP human tumour cell line panel, 48 h
BT-549 = system: BT-549
SF-268 = system: SF-268
SF-295 = system: SF-295
UO-31 = system: UO-31
HCT-116 = system: HCT-116
DU-145 = system: DU-145
SNB-19 = system: SNB-19
HT-29 = system: HT-29
HOP-62 = system: HOP-62
EKVX = system: EKVX
OVCAR-5 = system: OVCAR-5
HCT-15 = system: HCT-15
MDA-MB-435 = system: MDA-MB-435
SW-620 = system: SW-620
T47D = system: T47D
COLO 205 = system: COLO 205
SK-OV-3 = system: SK-OV-3
MDA-MB-231 = system: MDA-MB-231
MCF7 = system: MCF7
786-0 = system: 786-0
SN12C = system: SN12C
U-251 = system: U-251
Hs-578T = system: Hs-578T
A498 = system: A498
A549 = system: A549
NCI-H460 = system: NCI-H460
Malme-3M = system: Malme-3M
IGROV-1 = system: IGROV-1
PC-3 = system: PC-3
NCI/ADR-RES = system: NCI/ADR-RES
NCI-H23 = system: NCI-H23
UACC-62 = system: UACC-62
MOLT-4 = system: MOLT-4
M14 = system: M14
SNB-75 = system: SNB-75
CCRF-CEM = system: CCRF-CEM
ACHN = system: ACHN
SK-MEL-5 = system: SK-MEL-5
K562 = system: K562
NCI-H226 = system: NCI-H226
RXF 393 = system: RXF 393
HOP-92 = system: HOP-92
NCI-H522 = system: NCI-H522
SF-539 = system: SF-539
KM12 = system: KM12
TK-10 = system: TK-10
HCC 2998 = system: HCC 2998
SR = system: SR
MDA-N = system: MDA-N
OVCAR-4 = system: OVCAR-4
CAKI-1 = system: CAKI-1
OVCAR-3 = system: OVCAR-3
UACC-257 = system: UACC-257
SK-MEL-28 = system: SK-MEL-28
OVCAR-8 = system: OVCAR-8

COc1cc(C(=O)/C=C/c2ccc(OCC#N)cc2)cc(OC)c1OC
GI50 (BT-549): 17.7 µM (inactive) | GI50 (SF-268): 33.3 µM (inactive) | GI50 (SF-295): 46.2 µM (inactive) | GI50 (UO-31): 17.6 µM (inactive) | GI50 (HCT-116): 13.9 µM (inactive) | GI50 (DU-145): 28.1 µM (inactive) | GI50 (SNB-19): 20.3 µM (inactive) | GI50 (HT-29): 31.7 µM (inactive) | GI50 (HOP-62): 22.1 µM (inactive) | GI50 (EKVX): 50.8 µM (inactive) | GI50 (OVCAR-5): 47.5 µM (inactive) | GI50 (HCT-15): 19.5 µM | GI50 (MDA-MB-435): 20.5 µM (inactive) | GI50 (SW-620): 18.9 µM (inactive) | GI50 (T47D): 17.3 µM (inactive) | GI50 (COLO 205): 20 µM (inactive) | GI50 (SK-OV-3): 40.6 µM (inactive) | GI50 (MDA-MB-231): > 10 µM (inactive) | GI50 (MCF7): 9.02 µM (inactive) | GI50 (786-0): 22.2 µM (inactive) | GI50 (SN12C): 18.9 µM (inactive) | GI50 (U-251): 18 µM (inactive) | GI50 (Hs-578T): 25.1 µM (inactive) | GI50 (A498): 21.4 µM (inactive) | GI50 (A549): 21.4 µM (inactive) | GI50 (NCI-H460): 28.8 µM (inactive) | GI50 (Malme-3M): 17.4 µM (inactive) | GI50 (IGROV-1): 38.4 µM (inactive) | GI50 (PC-3): 18.7 µM (inactive) | GI50 (NCI/ADR-RES): 18 µM (inactive) | GI50 (NCI-H23): 19.5 µM (inactive) | GI50 (UACC-62): 21.2 µM (inactive) | GI50 (MOLT-4): 27 µM (inactive) | GI50 (M14): > 10 µM (inactive) | GI50 (SNB-75): > 10 µM (inactive) | GI50 (CCRF-CEM): 19.4 µM (inactive) | GI50 (ACHN): 23.5 µM (inactive) | GI50 (SK-MEL-5): 13.2 µM (inactive) | GI50 (K562): 24.5 µM (inactive) | GI50 (NCI-H226): 23.2 µM (inactive) | GI50 (RXF 393): 18.1 µM (inactive) | GI50 (HOP-92): 17 µM (inactive) | GI50 (NCI-H522): 17.3 µM (inactive) | GI50 (SF-539): 17.3 µM (inactive) | GI50 (KM12): 16 µM (inactive) | GI50 (TK-10): 25.1 µM (inactive) | GI50 (HCC 2998): 16.5 µM (inactive) | GI50 (SR): 23.6 µM (inactive) | GI50 (MDA-N): 38 µM (inactive) | GI50 (OVCAR-4): 37.4 µM (inactive) | GI50 (CAKI-1): 26.1 µM (inactive) | GI50 (OVCAR-3): 22.2 µM (inactive) | GI50 (UACC-257): 34 µM (inactive) | GI50 (SK-MEL-28): 17.3 µM (inactive) | GI50 (OVCAR-8): 29.5 µM (inactive)

From ChEMBL document CHEMBL1201862, “PubChem BioAssay data set” (2004)
